From ChEMBL document CHEMBL1806384, “Identification of benzofuran-4,5-diones as novel and selective non-hydroxamic acid, non-peptidomimetic based inhibitors of human peptide deformylase” (Bioorg Med Chem Lett, 2011)

What was measured:
[1] = biological target: T1, Aminopeptidase N (Sus scrofa) (UniProt P15145); assay: Inhibition of porcine kidney microsomal aminopeptidase N at 100 uM after 1 hr by fluorescence polarization based competition assay
T1 sequence (whole entry): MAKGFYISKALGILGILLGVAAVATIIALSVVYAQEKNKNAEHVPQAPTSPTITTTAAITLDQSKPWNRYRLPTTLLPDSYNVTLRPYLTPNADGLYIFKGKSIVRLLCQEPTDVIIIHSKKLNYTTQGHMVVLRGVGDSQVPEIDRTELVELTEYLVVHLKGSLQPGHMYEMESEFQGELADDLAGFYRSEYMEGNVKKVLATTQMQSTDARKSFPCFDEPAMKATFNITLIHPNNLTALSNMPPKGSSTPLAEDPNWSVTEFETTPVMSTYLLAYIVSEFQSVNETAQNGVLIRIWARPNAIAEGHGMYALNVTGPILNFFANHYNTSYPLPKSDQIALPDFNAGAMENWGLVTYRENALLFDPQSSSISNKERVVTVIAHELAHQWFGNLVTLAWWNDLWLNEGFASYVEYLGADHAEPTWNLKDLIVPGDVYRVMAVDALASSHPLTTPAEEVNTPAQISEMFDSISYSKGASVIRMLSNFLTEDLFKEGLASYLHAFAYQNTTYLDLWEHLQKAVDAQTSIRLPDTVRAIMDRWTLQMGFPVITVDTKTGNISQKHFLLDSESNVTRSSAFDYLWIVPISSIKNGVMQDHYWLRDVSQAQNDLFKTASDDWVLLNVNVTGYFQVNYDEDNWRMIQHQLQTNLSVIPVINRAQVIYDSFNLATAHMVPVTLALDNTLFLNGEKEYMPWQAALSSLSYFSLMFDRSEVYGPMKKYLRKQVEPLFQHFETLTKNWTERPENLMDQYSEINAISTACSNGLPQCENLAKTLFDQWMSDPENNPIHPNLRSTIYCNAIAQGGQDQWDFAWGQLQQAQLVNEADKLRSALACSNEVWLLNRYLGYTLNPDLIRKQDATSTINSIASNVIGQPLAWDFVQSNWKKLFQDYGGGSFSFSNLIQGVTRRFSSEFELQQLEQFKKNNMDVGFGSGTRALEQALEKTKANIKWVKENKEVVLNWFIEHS

[2] = biological target: T2, Peptide deformylase, mitochondrial (Homo sapiens) (UniProt Q9HBH1); assay: Inhibition of human peptide deformylase at 100 uM after 1 hr by fluorescence polarization based competition assay
T2 sequence (whole entry): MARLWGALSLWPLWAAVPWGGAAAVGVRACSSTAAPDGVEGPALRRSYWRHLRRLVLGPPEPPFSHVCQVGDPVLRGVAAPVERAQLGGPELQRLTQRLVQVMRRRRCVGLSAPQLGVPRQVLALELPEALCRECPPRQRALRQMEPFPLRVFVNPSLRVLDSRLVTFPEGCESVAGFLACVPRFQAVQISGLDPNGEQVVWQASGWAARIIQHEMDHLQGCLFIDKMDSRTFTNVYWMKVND

Jurkat = assay: Cytotoxicity against human Jurkat cells; assay type: functional, cell-based
[3] = biological target: T3, Peptide deformylase (Escherichia coli) (UniProt Q9JN24); assay: Inhibition of Escherichia coli peptide deformylase at 100 uM after 1 hr by fluorescence polarization based competition assay
T3 sequence (whole entry): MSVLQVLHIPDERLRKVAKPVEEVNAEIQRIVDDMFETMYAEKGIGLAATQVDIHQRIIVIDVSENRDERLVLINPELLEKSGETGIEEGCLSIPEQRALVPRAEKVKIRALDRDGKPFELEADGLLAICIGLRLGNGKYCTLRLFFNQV

[4] = Cytotoxicity against human Meso47 cells; assay type: functional, cell-based
HEK293 = assay: Cytotoxicity against human HEK293 cells; assay type: cell-based
Y79 = assay: Cytotoxicity against human Y79 cells; assay type: functional, cell-based
[5] = Cytotoxicity against human ALL3 cells; assay type: functional, cell-based
Peptide deformylase = biological target: T4, Peptide deformylase (Escherichia coli, UniProt Q9JN24); assay: Inhibition of Escherichia coli peptide deformylase after 1 hr by fluorescence polarization based competition assay
T4 sequence (Q9JN24 whole entry): T3 sequence (whole entry)

HL-60 [6] = assay: Antitumor activity against human HL60 cells xenografted in athymic nude mouse assessed as tumor growth delay at 15 mg/kg, ip administered 3 times a week for 2 weeks; assay type: functional; conditions: route intraperitoneal
HL-60 [7] = assay: Cytotoxicity against human vincristine-resistant HL60 cells; assay type: functional, cell-based
MOLT-3 = assay: Cytotoxicity against human MOLT3 cells; assay type: functional, cell-based
[8] = biological target: T5, Interstitial collagenase (Homo sapiens) (UniProt P03956); assay: Inhibition of human recombinant MMP1 at 100 uM after 1 hr by fluorescence polarization based competition assay
T5 sequence (whole entry): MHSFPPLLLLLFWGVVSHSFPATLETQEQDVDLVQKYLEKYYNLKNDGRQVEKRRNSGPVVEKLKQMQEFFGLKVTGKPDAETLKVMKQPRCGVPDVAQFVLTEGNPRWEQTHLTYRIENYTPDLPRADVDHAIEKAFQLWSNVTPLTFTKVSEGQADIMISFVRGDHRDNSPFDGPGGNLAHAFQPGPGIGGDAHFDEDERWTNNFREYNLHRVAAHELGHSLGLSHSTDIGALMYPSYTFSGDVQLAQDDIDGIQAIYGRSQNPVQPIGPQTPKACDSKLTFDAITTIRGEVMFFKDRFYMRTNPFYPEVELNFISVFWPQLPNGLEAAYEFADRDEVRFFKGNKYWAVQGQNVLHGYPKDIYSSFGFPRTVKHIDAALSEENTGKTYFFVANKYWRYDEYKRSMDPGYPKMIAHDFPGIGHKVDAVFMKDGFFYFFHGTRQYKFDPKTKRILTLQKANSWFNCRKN

[9] = Cytotoxicity against human CWR22 cells; assay type: functional, cell-based

`COc1cc(C(=O)c2coc3c2C(=O)C(=O)C(Br)=C3Br)cc(OC)c1OC` gave an inhibition [1] of 50%, an inhibition [2] of 100% and an IC50 (Jurkat) of 2.8 µM. It also gave an inhibition [3] of 32%, an IC50 [4] of 37 µM and an IC50 (HEK293) of 16 µM. The IC50 (Y79) was 33 µM, the IC50 [5] was 10 µM and the IC50 (Peptide deformylase) was over 100 µM. For the same compound, the Activity (HL-60 [6]) was 40%, the IC50 (HL-60 [7]) was 12 µM and the IC50 (MOLT-3) was 2.9 µM. The inhibition [8] was 38% and the IC50 [9] was 21 µM.
